Measured values as given in ChEMBL document CHEMBL3046607, “Synthesis and Herbicidal Activity of New 1-Alkyl-3-aryloxypyrazole-4-carboxamide Derivatives” (J Pestic Sci, 2004).
Active and inactive are the calls of the source. The calls are words filed in the database; no cut-off is given here.

How the values were obtained:
[1] = system: Elatine triandra; experiment: Pre-emergence herbicidal activity against Elatine triandra at 500 g a.i/ha measured after 14 days; type: functional, organism-based
[2] = system: Schoenoplectiella juncoides; experiment: Pre-emergence herbicidal activity against Schoenoplectiella juncoides at 100 g a.i/ha measured after 14 days; type: functional, organism-based
[3] = system: Cyperus difformis; experiment: Post-emergence herbicidal activity against Cyperus difformis assessed as bleaching of stem/leaf parts; type: functional, organism-based; further: test concentration or dose not given here
[4] = system: Oryza sativa; experiment: Phytotoxicity against Oryza sativa cv. Koshihikari (rice) at 33 g a.i/ha measured after 14 days; type: organism-based; details: in vivo, 336 h
[5] = system: Lindernia procumbens; experiment: Post-emergence herbicidal activity against Lindernia procumbens assessed as bleaching of stem/leaf parts; type: functional, organism-based; further: test concentration or dose not given here
[6] = system: Cyperus difformis; experiment: Pre-emergence herbicidal activity against Cyperus difformis at 500 g a.i/ha measured after 14 days; type: functional, organism-based
[7] = system: Echinochloa oryzicola; experiment: Pre-emergence herbicidal activity against Echinochloa oryzicola at 100 g a.i/ha measured after 14 days; type: functional, organism-based
[8] = system: Echinochloa oryzicola; experiment: Pre-emergence herbicidal activity against Echinochloa oryzicola assessed as bleaching of stem/leaf parts; type: functional, organism-based
[9] = system: Ammannia multiflora; experiment: Pre-emergence herbicidal activity against Ammannia multiflora at 100 g a.i/ha measured after 14 days; type: functional, organism-based
[10] = system: Echinochloa oryzicola; experiment: Pre-emergence herbicidal activity against Echinochloa oryzicola at 500 g a.i/ha measured after 14 days; type: functional, organism-based
[11] = system: Pontederia vaginalis; experiment: Pre-emergence herbicidal activity against Monochoria vaginalis at 500 g a.i/ha measured after 14 days; type: functional, organism-based
[12] = system: Pontederia vaginalis; experiment: Pre-emergence herbicidal activity against Monochoria vaginalis at 100 g a.i/ha measured after 14 days; type: functional, organism-based
[13] = system: Echinochloa oryzicola; experiment: Pre-emergence herbicidal activity against Echinochloa oryzicola at 33 g a.i/ha measured after 14 days; type: functional, organism-based
[14] = system: Cyperus difformis; experiment: Pre-emergence herbicidal activity against Cyperus difformis assessed as bleaching of stem/leaf parts; type: functional, organism-based
[15] = system: Oryza sativa; experiment: Phytotoxicity against Oryza sativa cv. Koshihikari (rice) at 100 g a.i/ha measured after 14 days; type: organism-based; details: in vivo, 336 h
[16] = system: Schoenoplectiella juncoides; experiment: Post-emergence herbicidal activity against Schoenoplectiella juncoides assessed as bleaching of stem/leaf parts; type: functional, organism-based; further: test concentration or dose not given here
[17] = system: Pontederia vaginalis; experiment: Post-emergence herbicidal activity against Monochoria vaginalis assessed as bleaching of stem/leaf parts; type: functional, organism-based
[18] = system: Schoenoplectiella juncoides; experiment: Pre-emergence herbicidal activity against Schoenoplectiella juncoides at 500 g a.i/ha measured after 14 days; type: functional, organism-based
[19] = system: Ammannia multiflora; experiment: Pre-emergence herbicidal activity against Ammannia multiflora at 500 g a.i/ha measured after 14 days; type: functional, organism-based
[20] = system: Rotala indica; experiment: Pre-emergence herbicidal activity against Rotala indica assessed as bleaching of stem/leaf parts; type: functional, organism-based
[21] = system: Ammannia multiflora; experiment: Post-emergence herbicidal activity against Ammannia multiflora assessed as bleaching of stem/leaf parts; type: functional, organism-based
[22] = system: Lindernia procumbens; experiment: Pre-emergence herbicidal activity against Lindernia procumbens assessed as bleaching of stem/leaf parts; type: functional, organism-based
[23] = system: Cyperus difformis; experiment: Pre-emergence herbicidal activity against Cyperus difformis at 100 g a.i/ha measured after 14 days; type: functional, organism-based
[24] = system: Lindernia procumbens; experiment: Pre-emergence herbicidal activity against Lindernia procumbens at 33 g a.i/ha measured after 14 days; type: functional, organism-based
[25] = system: Oryza sativa; experiment: Phytotoxicity against Oryza sativa cv. Koshihikari (rice) at 500 g a.i/ha measured after 14 days; type: organism-based; details: in vivo, 336 h
[26] = system: Lindernia procumbens; experiment: Pre-emergence herbicidal activity against Lindernia procumbens at 100 g a.i/ha measured after 14 days; type: functional, organism-based
[27] = system: Ammannia multiflora; experiment: Pre-emergence herbicidal activity against Ammannia multiflora assessed as bleaching of stem/leaf parts; type: functional, organism-based
[28] = system: Elatine triandra; experiment: Pre-emergence herbicidal activity against Elatine triandra at 100 g a.i/ha measured after 14 days; type: functional, organism-based
[29] = system: Elatine triandra; experiment: Post-emergence herbicidal activity against Elatine triandra assessed as bleaching of stem/leaf parts; type: functional, organism-based; further: test concentration or dose not given here
[30] = system: Schoenoplectiella juncoides; experiment: Pre-emergence herbicidal activity against Schoenoplectiella juncoides assessed as bleaching of stem/leaf parts; type: functional, organism-based
[31] = system: Echinochloa oryzicola; experiment: Post-emergence herbicidal activity against Echinochloa oryzicola assessed as bleaching of stem/leaf parts; type: functional, organism-based
[32] = system: Elatine triandra; experiment: Pre-emergence herbicidal activity against Elatine triandra assessed as bleaching of stem/leaf parts; type: functional, organism-based
[33] = system: Pontederia vaginalis; experiment: Pre-emergence herbicidal activity against Monochoria vaginalis assessed as bleaching of stem/leaf parts; type: functional, organism-based
[34] = system: Elatine triandra; experiment: Pre-emergence herbicidal activity against Elatine triandra at 33 g a.i/ha measured after 14 days; type: functional, organism-based
[35] = system: Ammannia multiflora; experiment: Pre-emergence herbicidal activity against Ammannia multiflora at 33 g a.i/ha measured after 14 days; type: functional, organism-based
[36] = system: Pontederia vaginalis; experiment: Pre-emergence herbicidal activity against Monochoria vaginalis at 33 g a.i/ha measured after 14 days; type: functional, organism-based
[37] = system: Lindernia procumbens; experiment: Pre-emergence herbicidal activity against Lindernia procumbens at 500 g a.i/ha measured after 14 days; type: functional, organism-based
[38] = system: Rotala indica; experiment: Pre-emergence herbicidal activity against Rotala indica at 33 g a.i/ha measured after 14 days; type: functional, organism-based
[39] = system: Schoenoplectiella juncoides; experiment: Pre-emergence herbicidal activity against Schoenoplectiella juncoides at 33 g a.i/ha measured after 14 days; type: functional, organism-based
[40] = system: Rotala indica; experiment: Pre-emergence herbicidal activity against Rotala indica at 500 g a.i/ha measured after 14 days; type: functional, organism-based
[41] = system: Cyperus difformis; experiment: Pre-emergence herbicidal activity against Cyperus difformis at 33 g a.i/ha measured after 14 days; type: functional, organism-based
[42] = system: Rotala indica; experiment: Pre-emergence herbicidal activity against Rotala indica at 100 g a.i/ha measured after 14 days; type: functional, organism-based
[43] = system: Rotala indica; experiment: Post-emergence herbicidal activity against Rotala indica assessed as bleaching of stem/leaf parts; type: functional, organism-based
[44] = system: Echinochloa oryzicola; experiment: Pre-emergence herbicidal activity against Echinochloa oryzicola at 10 g a.i/ha measured after 14 days; type: functional, organism-based
[45] = system: Ammannia multiflora; experiment: Pre-emergence herbicidal activity against Ammannia multiflora at 10 g a.i/ha measured after 14 days; type: functional, organism-based
[46] = system: Lindernia procumbens; experiment: Pre-emergence herbicidal activity against Lindernia procumbens at 10 g a.i/ha measured after 14 days; type: functional, organism-based
[47] = system: Schoenoplectiella juncoides; experiment: Pre-emergence herbicidal activity against Schoenoplectiella juncoides at 10 g a.i/ha measured after 14 days; type: functional, organism-based
[48] = system: Oryza sativa; experiment: Phytotoxicity against Oryza sativa cv. Koshihikari (rice) at 10 g a.i/ha measured after 14 days; type: organism-based; details: in vivo, 336 h
[49] = system: Cyperus difformis; experiment: Pre-emergence herbicidal activity against Cyperus difformis at 10 g a.i/ha measured after 14 days; type: functional, organism-based
[50] = system: Elatine triandra; experiment: Pre-emergence herbicidal activity against Elatine triandra at 10 g a.i/ha measured after 14 days; type: functional, organism-based
[51] = system: Pontederia vaginalis; experiment: Pre-emergence herbicidal activity against Monochoria vaginalis at 1 0 g a.i/ha measured after 14 days; type: functional, organism-based
[52] = system: Rotala indica; experiment: Pre-emergence herbicidal activity against Rotala indica at 10 g a.i/ha measured after 14 days; type: functional, organism-based

## Cn1cc(C(=O)Nc2ccccc2)c(Oc2cccc(C(F)(F)F)c2)n1
[1]
  Activity: Active
[2]
  Activity: Active
[3]
  Activity: Active
[4]
  Activity: Non-toxic
[5]
  Activity: Active
[6]
  Activity: Active
[7]
  Activity: Active
[8]
  Activity: Active
[9]
  Activity: Active
[10]
  Activity: Active
[11]
  Activity: Active
[12]
  Activity: Active
[13]
  Activity: inactive
[14]
  Activity: Active
[15]
  Activity: Non-toxic
[16]
  Activity: Active
[17]
  Activity: Active
[18]
  Activity: Active
[19]
  Activity: Active
[20]
  Activity: Active
[21]
  Activity: Active
[22]
  Activity: Active
[23]
  Activity: Active
[24]
  Activity: Active
[25]
  Activity: Toxic
[26]
  Activity: Active
[27]
  Activity: Active
[28]
  Activity: Active
[29]
  Activity: Active
[30]
  Activity: Active
[31]
  Activity: Active
[32]
  Activity: Active
[33]
  Activity: Active
[34]
  Activity: Active
[35]
  Activity: Active
[36]
  Activity: Active
[37]
  Activity: Active
[38]
  Activity: Active
[39]
  Activity: inactive
[40]
  Activity: Active
[41]
  Activity: Active
[42]
  Activity: Active
[43]
  Activity: Active

## CCn1cc(C(=O)Nc2ccc(F)cc2F)c(Oc2cccc(C(F)(F)F)c2)n1
[3]
  Activity: Active
[4]
  Activity: Non-toxic
[5]
  Activity: Active
[8]
  Activity: Active
[44]
  Activity: Active
[13]
  Activity: Active
[14]
  Activity: Active
[16]
  Activity: Active
[17]
  Activity: Active
[20]
  Activity: Active
[21]
  Activity: Active
[22]
  Activity: Active
[24]
  Activity: Active
[45]
  Activity: Active
[27]
  Activity: Active
[29]
  Activity: Active
[30]
  Activity: Active
[31]
  Activity: Active
[32]
  Activity: Active
[33]
  Activity: Active
[46]
  Activity: Active
[47]
  Activity: inactive
[48]
  Activity: Non-toxic
[34]
  Activity: Active
[35]
  Activity: Active
[36]
  Activity: Active
[49]
  Activity: Active
[50]
  Activity: Active
[51]
  Activity: Active
[38]
  Activity: Active
[39]
  Activity: Active
[41]
  Activity: Active
[52]
  Activity: Active
[43]
  Activity: Active

## Cn1cc(C(=O)Nc2ccc(F)cc2F)c(Oc2ccc(Cl)c(C(F)(F)F)c2)n1
[3]
  Activity: Active
[4]
  Activity: Non-toxic
[5]
  Activity: Active
[8]
  Activity: Active
[44]
  Activity: inactive
[13]
  Activity: Active
[14]
  Activity: Active
[16]
  Activity: Active
[17]
  Activity: Active
[20]
  Activity: Active
[21]
  Activity: Active
[22]
  Activity: Active
[24]
  Activity: Active
[45]
  Activity: Active
[27]
  Activity: Active
[29]
  Activity: Active
[30]
  Activity: Active
[31]
  Activity: Active
[32]
  Activity: Active
[33]
  Activity: Active
[46]
  Activity: Active
[47]
  Activity: Active
[48]
  Activity: Non-toxic
[34]
  Activity: Active
[35]
  Activity: Active
[36]
  Activity: Active
[49]
  Activity: Active
[50]
  Activity: Active
[51]
  Activity: Active
[38]
  Activity: Active
[39]
  Activity: Active
[41]
  Activity: Active
[52]
  Activity: Active
[43]
  Activity: Active

## Cn1cc(C(=O)Nc2ccc(F)cc2F)c(Oc2cccc(C(F)(F)F)c2)n1
[3]
  Activity: Active
[4]
  Activity: Non-toxic
[5]
  Activity: Active
[8]
  Activity: Active
[44]
  Activity: inactive
[13]
  Activity: Active
[14]
  Activity: Active
[16]
  Activity: Active
[17]
  Activity: Active
[20]
  Activity: Active
[21]
  Activity: Active
[22]
  Activity: Active
[24]
  Activity: Active
[45]
  Activity: inactive
[27]
  Activity: Active
[29]
  Activity: Active
[30]
  Activity: Active
[31]
  Activity: Active
[32]
  Activity: Active
[33]
  Activity: Active
[46]
  Activity: inactive
[47]
  Activity: inactive
[48]
  Activity: Non-toxic
[34]
  Activity: Active
[35]
  Activity: Active
[36]
  Activity: Active
[49]
  Activity: inactive
[50]
  Activity: inactive
[51]
  Activity: inactive
[38]
  Activity: Active
[39]
  Activity: Active
[41]
  Activity: Active
[52]
  Activity: inactive
[43]
  Activity: Active
